Experimental data published in patent EP1189688B1, “W/O TYPE EMULSIONS WITH A HIGH WATER CONTENT CONTAINING MEDIUM POLAR LIPIDS” (Beiersdorf AG, priority 1999, dated 2000).

Experiment: Interfacial tension of the lipid against water (measure of polarity)
Type: physicochemical
Details: lower value = more polar oil
Text: Öle und Fette unterscheiden sich unter anderem in ihrer Polarität, welche schwierig zu definieren ist. Es wurde bereits vorgeschlagen, die Grenzflächenspannung gegenüber Wasser als Maß für den Polaritätsindex eines Öls bzw. einer Ölphase anzunehmen. Dabei gilt, daß die Polarität der betreffenden Ölphase umso größer ist, je niedriger die Grenzflächenspannung zwischen dieser Ölphase und Wasser ist. Erfindungsgemäß wird die Grenzflächenspannung als ein mögliches Maß für die Polarität einer gegebenen Ölkomponente angesehen.
Die Grenzflächenspannung ist diejenige Kraft, die an einer gedachten, in der Grenzfläche zwischen zwei Phasen befindlichen Linie der Länge von einem Meter wirkt. Die physikalische Einheit für diese Grenzflächenspannung errechnet sich klassisch nach der Beziehung Kraft/Länge und wird gewöhnlich in mN/m (Millinewton geteilt durch Meter) wiedergegeben. Sie hat positives Vorzeichen, wenn sie das Bestreben hat, die Grenzfläche zu verkleinern. Im umgekehrten Falle hat sie negatives Vorzeichen.
Die nachfolgende Tabelle 1 führt mittelpolare Lipide auf, die die erfindungsgemäß sind. Die betreffenden Grenzflächenspannungen gegen Wasser sind in der letzten Spalte angegeben. Es ist jedoch auch vorteilhaft, Gemische aus höher- und niederpolaren und dergleichen zu verwenden, sofern gewährleistet ist, daß die Gesamtpolarität der Ölphase im beanspruchten Bereich liegt. Tabelle 1

Row | Compound | Grenzflächenspannungen gegen Wasser
1 | CCCCCCCCCCCCCCCCCCOC(=O)CCCCCC [Tegosoft® SH, Stearyl Heptanoate] | 28,7 mN/m
2 | CCCCCCCCCCCCCCCCCC(=O)OCCCCCCCC [Cetiol® 868, Octyl Stearate] | 28,4 mN/m
3 | CCCCCCCCC(CO)CCCCCC (centres unmarked) [Isofol® 16, Hexyl Decanol] | 24,3 mN/m
4 | Octyl lsostearate [Prisorine® 2036] | 29,7 mN/m
5 | CCCCCCCCCCC(CO)CCCCCCCC (centres unmarked) [Eutanol® G, Octyldodecanol] | 24,8 mN/m
6 | CCCCCCCCCCCCCCCCCC(=O)OC(C)C [Isopropylstearat, Isopropyl Stearate] | 21,9 mN/m
7 | CCCCCCCCCCCCCC(=O)OCC(CCCCCCCC)CCCCCCCCCC (centres unmarked) [MOD, Octyldodeceyl Myristate] | 22,1 mN/m
8 | CCCCCCCC(=O)OCC(COC(=O)CCCCCCC)OC(=O)CCCCCCC [Trivent® OCG, Tricaprylin] | 20,2 mN/m
